Results published in patent US12459951B2, “Compounds that interact with RAS superfamily proteins for treatment of cancers, inflammatory diseases, rasopathies, and fibrotic disease” (SHY Therapeutics, LLC, priority 2022, dated 2025).

Key:
[1] = tested on: Erk1/2 phosphorylation; assay: Erk1/2 Phosphorylation Assay (western blot), Panc-1; type: cell-based, human; conditions: at 10 μM, * = activation
Experimental: Protocol for Western Erk1/2 Cell-Based Phosphorylation Assay
This assay is referred to as the “Erk1/2 Phosphorylation Assay” throughout this application.
Cell lines: Human tumor-derived pancreatic cancer cell line Panc-1 (expressing KRas G12D mutant) was purchased from American Type Culture Collection and grown in complete DMEM-High Glucose medium, supplemented with penicillin (100 U/mL), streptomycin (100 μg/mL), and 10% heat-inactivated FBS at 37° C. in a humidified incubator with 5% CO2.
Method 1: Cells were plated at 350000 cells/well density in a 12-well plate, allowed 3 hours to adhere to the plate, then starved in the appropriate medium in the presence of 0.5% FBS overnight. The small molecules to be tested were added to the cells in the final concentration of 10 μM in the presence of 0.3% DMSO for 6 hours incubation at 37° C. For IC50 value determination, serial dilutions of compounds were added to cells under the same conditions. Next, cells were stimulated with 1.5 ng/ml EGF for 15 minutes then cells were lysed with lysis buffer containing 1% Triton X-100, EDTA, and Halt™ Protease & Phosphatase Inhibitor Cocktail (Thermo Scientific). Protein concentration was assessed by BCA protein assay (Thermo Scientific). Phosphorylation level of Erk1/2 was determined by western blot.
Method 2: Cells were plated at 350000 cells/well density in a 12-well plate in 10% FBS. The next day small molecules to be tested were added to the cells in the final concentration of 10 μM in the presence of 0.3% DMSO for 6 hours incubation at 37° C. For IC50 value determination, serial dilutions of compounds were added to cells under the same conditions. Next, cells were lysed with lysis buffer containing 1% Triton X-100, EDTA, and Halt™ Protease & Phosphatase Inhibitor Cocktail (Thermo Scientific). Protein concentration was assessed by BCA protein assay (Thermo Scientific). Phosphorylation level of Erk1/2 was determined by western blot.
Western blot protocol: Equal amounts of protein (15-50 μg) were separated by SDS-PAGE and transferred to nitrocellulose membranes (Invitrogen by Thermo Fisher Scientific). The membrane was stained with Ponceau S Stain (Boston BioProducts) to verify uniform protein loading. Membranes were blocked with 10% milk and phosphorylation levels of Erk1/2 were assessed by incubating overnight at 4° C. with anti-phospho-p44/42 (Thr202/Tyr204) antibody (Cell Signaling) followed by HRP-conjugated secondary antibody (Jackson Immunoresearch, West Grove, PA). Bands were incubated in Amersham ECL Prime Western Blotting Detection Reagent (GE Healthcare) and visualized using the ChemiDoc MP imaging system (Bio-Rad).

[2] = molecular target: T1, Rac-1 (Homo sapiens, UniProt P63000); assay: Ras GTP Binding Domain Inhibition Assay (Ras Superfamily Assay); conditions: read-out: Rac-1: % inh.
T1 construct: made in house
Text: (§1) Biological Example 3: Ras GTP Binding Domain Inhibition Assay
(§2) The assays described in Example 3 are collectively referred to as the “Ras Superfamily Assay” throughout this application.
(§3) A Ras Superfamily Activity Assay (as disclosed in International Application No. PCT/US2018/038613, filed Jun. 20, 2018, which is incorporated by reference in its entirety) was used as a specific assay to evaluate compounds against the following for the following Ras Superfamily proteins: KRas wild type, KRas Q61H mutant, KRas G12C mutant, KRas G12D mutant, Rac-1, and Rho-A.
(§4) • 25 mM Tris-HCl, pH 7.4 • 27 mM KCl • 137 mM NaCl • 1 mM MgCl2 • 1 mM DTT Buffer-II: • 50 mM Tris-HCl, pH 7.0 • 1 mM MgCl2 • 1 mM DTT
(§5) The small GTPases proteins: KRas wild type. KRas Q61H mutant, KRas G12C mutant, KRas G12D mutants, Rac-1, and Rho-A were expressed as His-tagged proteins. In addition, the Guanosine nucleotide Exchange Factor (GEF) Sos protein (residues 556-1049) was expressed as a His-tagged protein. In cells, the guanine nucleotide exchange factor Sos protein promotes activation of Ras proteins by stimulating an exchange of GDP for GTP. The inclusion of Sos to the Ras GTP binding domain inhibition assay may be considered as an alternative representation of physiological cellular conditions for evaluating the inhibitory activity of some of the tested small molecules.
(§6) For the assay, all purified small GTPases proteins were diluted in Buffer-I or Buffer-II to a final concentration of 10-30 μg/mL. 200 μL of each diluted protein was added to a nickel-coated 96-well plate and incubated overnight at 4° C. Then the protein solution was discarded and 200 μL of Buffer-I or Buffer-II was added to each well in the presence of 1% DMSO. Compounds to be tested were added to the protein-coated wells at final concentration of 20 μM, and incubated for 3 hours at room temperature with and without 10-30 μg/mL of Sos added to the final hour of the incubation. When performing IC50 measurements a serial dilution of all tested concentrations was added. Then Cy3-GTP or Cy5-GTP was added to each well to a final concentration of 100 nM. The labeled GTP was incubated for 45 minutes at room temperature. Following GTP incubation, wells were washed 3× in Buffer-I or Buffer-II and 200 μL of Buffer-I or Buffer-II was added to each well. Following washes, the amount of bound labeled-GTP was measured using a SpectraMax M3 (Molecular Devices).

[3] = tested on: KRas G12D mutant; assay: as above; conditions: 20 μM compound; for KRas G12D mutant + SOS: % inh.: with SOS; for KRas G12D mutant: % inh.: without SOS
Text: as §1, §2, §3, §4, §5, §6

[4] = tested on: KRas wild type; assay: as above; conditions: 20 μM compound; for KRas wild type + SOS: % inh.: with SOS; for KRas wild type: % inh.: without SOS
Text: as §1, §2, §3, §4, §5, §6

Structure (SMILES)	% inh of Erk1/2 phosphorylation in Panc-1 [1]	inhibition at 20 µM [2] [%]	KRas G12D mutant + SOS: % inh. [3]	KRas G12D mutant: % inh. [3]	KRas wild type + SOS: % inh. [4]	KRas wild type: % inh. [4]
Cc1c(-c2ccn(C)n2)cn2nc(-c3nccn3C)nc(Nc3cc(OCC(F)(F)F)ccn3)c12 [Compound 129, 5-Methyl-2-(1-methyl-1H-imidazol-2-yl)-6-(1-methyl-1H-pyrazol-3-yl)-N-(4-(2,2,2-trifluoroethoxy)pyridin-2-yl)pyrrolo[2,1-f][1,2,4]triazin-4-amine]	D* (85-100% activation)	26 to 49	B (B = 26-49% inhibition)	B (B = 26-49% inhibition)	B (B = 26-49% inhibition)	B (B = 26-49% inhibition)
COc1cc(Nc2nc(-c3nccn3C)nn3cc(-c4ccn(C(C)C)n4)c(C)c23)ncn1 [Compound 6, 6-(1-Isopropyl-1H-pyrazol-3-yl)-N-(6-methoxypyrimidin-4-yl)-5-methyl-2-(1-methyl-1H-imidazol-2-yl)pyrrolo[2,1-f][1,2,4]triazin-4-amine]	0 (0% inhibition)	50 to 75	C (C = 50-75% inhibition)	D (D = 76-100% inhibition)	C (C = 50-75% inhibition)	D (D = 76-100% inhibition)
Cc1c(-c2ccn(C(C)C)n2)cn2nc(-c3nccn3C)nc(Nc3cc(OCCN(C)C)ncn3)c12 [Compound 123, N-(6-(2-(Dimethylamino)ethoxy)pyrimidin-4-yl)-6-(1-isopropyl-1H-pyrazol-3-yl)-5-methyl-2-(1-methyl-1H-imidazol-2-yl)pyrrolo[2,1-f][1,2,4]triazin-4-amine]	A* (1-25% activation)	76 to 100	D (D = 76-100% inhibition)	D (D = 76-100% inhibition)	D (D = 76-100% inhibition)	D (D = 76-100% inhibition)
COc1cc(-c2cn3nc(-c4nccn4C)nc(N[C@@H]4CC[C@@H](OC)C4)c3c2C)ccn1 (racemic) [Compound 163, rac N-((1R,3R)-3-Methoxycyclopentyl)-6-(2-methoxypyridin-4-yl)-5-methyl-2-(1-methyl-1H-imidazol-2-yl)pyrrolo[2,1-f][1,2,4]triazin-4-amine]	A* (1-25% activation)	0	0 (0 = 0% inhibition)	0 (0 = 0% inhibition)	0 (0 = 0% inhibition)	0 (0 = 0% inhibition)
COc1ccnc(Nc2nc(-c3nccn3C)nn3cc(-c4cccnc4)c(C)c23)c1 [Compound 157, N-(4-Methoxy-pyridin-2-yl)-5-methyl-2-(1-methyl-1H-imidazol-2-yl)-6-(pyridin-3-yl)pyrrolo[2,1-f][1,2,4]triazin-4-amine]	C* (46-84% activation)	76 to 100	D (D = 76-100% inhibition)	D (D = 76-100% inhibition)	D (D = 76-100% inhibition)	D (D = 76-100% inhibition)
COc1ccnc(Nc2nc(-c3nccn3C)nn3cc(-c4ccn(C5CC5)n4)c(C)c23)c1 [Compound 137, 6-(1-Cyclopropyl-1H-pyrazol-3-yl)-N-(4-methoxypyridin-2-yl)-5-methyl-2-(1-methyl-1H-imidazol-2-yl)pyrrolo[2,1-f][1,2,4]triazin-4-amine]	B* (26-49% activation)	50 to 75	B (B = 26-49% inhibition)	C (C = 50-75% inhibition)	B (B = 26-49% inhibition)	C (C = 50-75% inhibition)
Cc1c(-c2ccn(C)n2)cn2nc(-c3nccn3C)nc(Nc3cc4n(n3)CCC4)c12 [Compound 100, N-(5,6-Dihydro-4H-pyrrolo[1,2-b]pyrazol-2-yl)-5-methyl-2-(1-methyl-1H-imidazol-2-yl)-6-(1-methyl-1H-pyrazol-3-yl)pyrrolo[2,1-f][1,2,4]triazin-4-amine]	C* (46-84% activation)	76 to 100	D (D = 76-100% inhibition)	D (D = 76-100% inhibition)	D (D = 76-100% inhibition)	D (D = 76-100% inhibition)
Cc1c(-c2ccn(C)n2)cn2nc(-c3nccn3C)nc(Nc3cc(OC(F)F)ccn3)c12 [Compound 128, N-(4-(Difluoromethoxy)pyridin-2-yl)-5-methyl-2-(1-methyl-1H-imidazol-2-yl)-6-(1-methyl-1H-pyrazol-3-yl)pyrrolo[2,1-f][1,2,4]triazin-4-amine]	D* (85-100% activation)	76 to 100	D (D = 76-100% inhibition)	D (D = 76-100% inhibition)	D (D = 76-100% inhibition)	D (D = 76-100% inhibition)
Cc1c(-c2ccn(C(C)C)n2)cn2nc(-c3nccn3C)nc(Nc3nccc(OCCO)n3)c12 [Compound 121, 2-((2-((6-(1-Isopropyl-1H-pyrazol-3-yl)-5-methyl-2-(1-methyl-1H-imidazol-2-yl)pyrrolo[2,1-f][1,2,4]triazin-4-yl)amino)pyrimidin-4-yl)oxy)ethan-1-ol]	D* (85-100% activation)	76 to 100	D (D = 76-100% inhibition)	D (D = 76-100% inhibition)	C (C = 50-75% inhibition)	D (D = 76-100% inhibition)
